The record followed here is patent US20220177538A1, “CO-AGONISTS AT GLP-1 AND GIP RECEPTORS SUITABLE FOR ORAL DELIVERY” (Novo Nordisk A/S, priority 2020, published 2022).

Like-named read-outs stand apart in the source and are kept apart here. Starred links: 1 amine or outer side, 2 acyl side, 3 side chain; linkers in the order of their positions; H or OH if unused. Non-standard residues stand in square brackets, D forms with d. Residues, ends and D or L forms follow the SMILES beside them. Groups on a side chain read outwards from the residue. *: point of attachment. C18 diacid = O=C(O)CCCCCCCCCCCCCCCCC(=O)*; γGlu = O=C(O)[C@H](CCC(=O)[*:2])N[*:1]; εLys = N[C@@H](CCCCN[*:1])C(=O)[*:2]; Aib = CC(C)(N)C(=O)O

One assay concerns the target T1, human GIP receptor (Homo sapiens, UniProt P48546).
T1 construct: expressed in transfected cells; host or cells: BHK (parent line BHKTS13), clone BHK CRE luc2P hGIPR
T1 sequence (P48546 22-466): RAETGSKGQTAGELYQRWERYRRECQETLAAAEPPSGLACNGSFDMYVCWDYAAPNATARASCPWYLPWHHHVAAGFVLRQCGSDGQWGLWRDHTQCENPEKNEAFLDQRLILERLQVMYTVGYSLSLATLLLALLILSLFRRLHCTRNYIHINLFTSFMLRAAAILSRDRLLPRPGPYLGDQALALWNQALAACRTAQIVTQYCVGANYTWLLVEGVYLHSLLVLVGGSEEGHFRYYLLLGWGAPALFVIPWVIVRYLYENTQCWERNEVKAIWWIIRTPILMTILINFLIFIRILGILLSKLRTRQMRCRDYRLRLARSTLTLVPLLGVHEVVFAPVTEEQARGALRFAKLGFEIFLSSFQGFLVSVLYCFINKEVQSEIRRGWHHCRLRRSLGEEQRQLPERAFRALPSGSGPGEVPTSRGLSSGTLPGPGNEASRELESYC
The experiment in a line: In vitro functional potency, CRE luciferase reporter, whole BHK cells (hGIPR). It counts as cell-based. Conditions: BHK CRE luc2P hGIPR cells. The procedure:
(§1) The in vitro functional potency is the measure of target receptor activation in a whole cell assay.
(§2) In vitro functional potency was determined by measuring the response of the target receptor in a reporter gene assay in individual cell lines. […] When the respective receptor is activated, it results in the production of cAMP, which in turn results in expression of the luciferase protein. When assay incubation is completed, luciferase substrate (luciferin) is added resulting in the enzymatic conversion of luciferin to oxyluciferin and producing bioluminescence. The luminescence is measured as the readout for the assay.
(§3) The cells lines used in these assays were BHK cells with BHKTS13 as a parent cell line. The cell lines were derived from a clone containing the CRE luciferase element and were established by further transfection with the respective human receptor to obtain the relevant cell line: BHK CRE luc2P hGLP-1R or BHK CRE luc2P hGIPR. The cells were cultured at 37° C. with 5% CO2 in Cell Culture Medium. They were aliquoted and stored in liquid nitrogen. The cells were kept in continuous culture and were seeded out the day before each assay.
(§4) GLP-1R Cell Culture Medium consisted of DMEM medium with 10% FBS, 500 µg/mL G418, and 300 µg/mL hygromycin. GIPR Cell Culture Medium consisted of DMEM medium with 10% FBS, 400 µg/mL G418, and 300 µg/mL hygromycin. Assay Buffer consisted of DMEM w/o phenol red, 10 mM Hepes, 1× Glutamax. 1% ovalbumin, and 0.1% Pluronic F-68 with the addition of HSA at twice the final assay concentration.
(§5) 1) Cells were plated at 5000 cells/well and incubated overnight in the assay plate. 2) Cells were washed once in DPBS. 3) Stocks of the test compounds and reference compounds in concentrations ranging from […] were diluted 1:150 in Assay Buffer. Compounds were then diluted 1:10 in column 1 of a 96 deep well dilution plate and then carried across the row creating a 3.5 fold, 12 point dilution curve. 4) Assay Buffer (50 μl aliquot) with or without HSA was added to each well in the assay plate. 5) A 50 μl aliquot of compound or blank was transferred from the dilution plate to the assay plate containing the Assay Buffer with or without HSA. 6) The assay plate was incubated for 3 h in a 5% CO2 incubator at 37° C. 7) The cells were washed once with DPBS. 8) A 100 μl aliquot of DPBS was added to each well of the assay plate. 9) A 100 μl aliquot of steadylite plus reagent (light sensitive) was added to each well of the assay plate. 10) Each assay plate was covered with aluminum foil to protect it from light and shaken at 250 RPM for 30 min at room temperature. 11) Each assay plate was read in a microtiter plate reader.
(§6) The data from the microtiter plate reader was first regressed in an Excel in order to calculate the x-axis, log scale concentrations based on the individual test compound's stock concentration and the dilutions of the assay. […] The software performs a non-linear regression (log(agonist) vs response). A minimum of two replicates was measured for each sample. The reported values are averages of the replicates.
(In general: A reporter such as luciferase makes a cellular process visible.)

Another assay has as its target human GLP-1 receptor (Homo sapiens, UniProt P43220). As to the kind of experiment: In vitro functional potency, CRE luciferase reporter, whole BHK cells (hGLP-1R). It counts as cell-based. Further details: expressed in transfected cells; host or cells: BHK (parent line BHKTS13), clone BHK CRE luc2P hGLP-1R. The note with it: BHK CRE luc2P hGLP-1R cells. The procedure:
as §1, §2, §3, §4, §5, §6

Setting [1] is: 0% HSA, read-out: hGIPR, CRE Luc 0% HSA EC50.
The mark [2] stands for this setting: hGIPR, CRE Luc 1% HSA EC50, 1% HSA.
Setting [3] is: 0% HSA, read-out: hGLP-1R, CRE Luc 0% HSA EC50.
Where [4] appears, read: hGLP-1R, CRE Luc 1% HSA EC50, 1% HSA.

Chain of human GLP-1 receptor (P43220 24-463): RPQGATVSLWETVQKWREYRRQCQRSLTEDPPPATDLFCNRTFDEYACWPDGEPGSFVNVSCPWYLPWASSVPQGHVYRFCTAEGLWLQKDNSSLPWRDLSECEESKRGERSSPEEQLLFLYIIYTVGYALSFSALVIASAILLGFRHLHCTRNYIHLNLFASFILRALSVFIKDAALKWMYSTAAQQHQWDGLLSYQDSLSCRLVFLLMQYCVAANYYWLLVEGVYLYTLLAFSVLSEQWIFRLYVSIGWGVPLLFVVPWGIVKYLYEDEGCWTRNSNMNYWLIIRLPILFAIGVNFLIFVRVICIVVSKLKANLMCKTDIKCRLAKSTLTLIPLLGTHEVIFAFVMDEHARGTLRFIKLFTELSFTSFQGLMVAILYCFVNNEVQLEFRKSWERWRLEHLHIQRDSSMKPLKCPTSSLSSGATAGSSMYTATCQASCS

What is called EC50 is the concentration needed to bring the measured effect to its halfway point. `CC[C@H](C)[C@H](NC(=O)[C@H](Cc1ccccc1)NC(=O)[C@H](CCC(=O)O)NC(=O)[C@H](CCCNC(=N)N)NC(=O)[C@H](C)NC(=O)[C@H](C)NC(=O)[C@H](CCC(N)=O)NC(=O)[C@H](CCCCNC(=O)[C@@H](N)CCCCNC(=O)[C@@H](N)CCCCNC(=O)CC[C@H](NC(=O)CCCCCCCCCCCCCCCCC(=O)O)C(=O)O)NC(=O)[C@H](CCC(=O)O)NC(=O)[C@H](CC(C)C)NC(=O)[C@H](CC(C)C)NC(=O)[C@@H](NC(=O)[C@H](CO)NC(=O)[C@H](Cc1ccc(O)cc1)NC(=O)[C@H](CC(=O)O)NC(=O)[C@H](CO)NC(=O)[C@@H](NC(=O)[C@H](Cc1ccccc1)NC(=O)[C@@H](NC(=O)CNC(=O)[C@H](CCC(=O)O)NC(=O)C(C)(C)NC(=O)[C@@H](N)Cc1ccc(O)cc1)[C@@H](C)O)[C@@H](C)O)[C@@H](C)CC)C(=O)N[C@@H](CCC(=O)O)C(=O)N[C@@H](Cc1c[nH]c2ccccc12)C(=O)N[C@@H](CC(C)C)C(=O)N[C@@H](CC(C)C)C(=O)N[C@@H](CCCNC(=N)N)C(=O)NCC(=O)NCC(=O)N1CCC[C@H]1C(=O)N[C@@H](CO)C(=O)N[C@@H](CO)C(=O)NCC(=O)N[C@@H](C)C(=O)N1CCC[C@H]1C(=O)N1CCC[C@H]1C(=O)N1CCC[C@H]1C(=O)N[C@@H](CO)C(=O)O` [Compound 27] (H-Y[Aib]EGTFTSDYSILLEK([εLys-εLys-γGlu-C18 diacid])QAAREFIEWLLRGGPSSGAPPPS-OH): the EC50 at human GIP receptor (setting [1]) came to 0.0063 nM; at human GIP receptor (setting [2]) it was 0.132 nM; on human GLP-1 receptor (setting [3]) it was 0.0046 nM; at human GLP-1 receptor (setting [4]), 0.127 nM.

As for `CC[C@H](C)[C@H](NC(=O)[C@H](Cc1ccccc1)NC(=O)[C@H](CCC(=O)O)NC(=O)[C@H](CCCNC(=N)N)NC(=O)[C@H](C)NC(=O)[C@H](C)NC(=O)[C@H](CCC(N)=O)NC(=O)[C@H](CCC(=O)O)NC(=O)[C@H](CCC(=O)O)NC(=O)[C@H](CC(C)C)NC(=O)[C@H](CC(C)C)NC(=O)[C@@H](NC(=O)[C@H](CO)NC(=O)[C@H](Cc1ccc(O)cc1)NC(=O)[C@H](CC(=O)O)NC(=O)[C@H](CO)NC(=O)[C@@H](NC(=O)[C@H](Cc1ccccc1)NC(=O)[C@@H](NC(=O)CNC(=O)[C@H](CCC(=O)O)NC(=O)C(C)(C)NC(=O)[C@@H](N)Cc1ccc(O)cc1)[C@@H](C)O)[C@@H](C)O)[C@@H](C)CC)C(=O)N[C@@H](CC(N)=O)C(=O)N[C@@H](Cc1c[nH]c2ccccc12)C(=O)N[C@@H](CC(C)C)C(=O)N[C@@H](CC(C)C)C(=O)N[C@@H](C)C(=O)NCC(=O)NCC(=O)N1CCC[C@H]1C(=O)N[C@@H](CO)C(=O)N[C@@H](CCCCNC(=O)[C@@H](N)CCCCNC(=O)[C@@H](N)CCCCNC(=O)CC[C@H](NC(=O)CCCCCCCCCCCCCCCCC(=O)O)C(=O)O)C(=O)NCC(=O)N[C@@H](C)C(=O)N1CCC[C@H]1C(=O)N1CCC[C@H]1C(=O)N1CCC[C@H]1C(=O)N[C@@H](CO)C(=O)O` [Compound 44] (H-Y[Aib]EGTFTSDYSILLEEQAAREFINWLLAGGPSK([εLys-εLys-γGlu-C18 diacid])GAPPPS-OH), the EC50 at human GIP receptor (setting [1]) is 0.0057 nM; on human GIP receptor (setting [2]) it was 0.365 nM; on human GLP-1 receptor (setting [3]), 0.0042 nM; on human GLP-1 receptor (setting [4]) it was 0.241 nM.
